# Source: patent US7897591B2, “Method of treating fatty liver disease” (priority 2005, dated 2011)
# Legend:
# Type in all cases: in vivo, mouse
# IL-6 = test: ELISA for serum IL-6 levels; conditions: HCD+MAR vs HCD-only group, P=0.001
# Protocol: (§1) Control animals (n=5) received normal chow and water ad libitum. All animals in the experimental groups were fed a fat-free, high carbohydrate liquid diet (HCD) ad libitum placed in one bottle per cage as previously described (3, 62). No additional sources of nutrition or hydration were provided. The HCD liquid solution contained 20% dextrose, a commercial mixture of 2% essential and nonessential amino acids (TrophAmine, B. Braun Medical, Irvine, Calif.), 2 ml trace elements (Trace Elements Injection 4, USP—Pediatric, American Regent Shirley, N.Y.), and 5 ml multivitamins (M.V.I. Pediatric™, Mayne Pharma, Paramus, N.J.). Each liter of HCD contained 30 meq sodium, 20 meq potassium chloride, 15 meq calcium, 10 meq magnesium, and 10 mM phosphate. The bottles were replaced daily with fresh HCD solution. HCD animals (n=5) received HCD only and no additional treatment for 19 days. The HCD+MAR animals (n=15) additionally received 100 mg/kg of Marimastat™ in 0.45% methylcellulose (Sigma-Aldrich Corporation, St. Louis, Mo.) vehicle twice daily via orogastric gavage. The animals were individually weighed every third day and at sacrifice. Mouse serum IL-6 levels were determined using a commercial ELISA kit (Quantikine®, R&D systems, Inc., Minneapolis, Minn.). Optical density was read at 450 nm and analyzed with Softmax® PRO Software (Molecular Devices Corporation, Sunnyvale, Calif.).
# SREBP-1c = test: Western blot of liver SREBP-1c; conditions: across the treatment groups
# Protocol: as §1, with “[…] The assay” for “Mouse serum IL-6 levels were determined using a commercial ELISA kit (Quantikine®, R&D systems, Inc., Minneapolis, Minn.). Optical density”, “595” for “450”, “Calif.). 30 ug of protein per sample were analyzed by SDS-PAGE. […]” for “Calif.).”
# PPAR-α = test: Immunoprecipitation and SDS-PAGE of PPAR-α phosphorylation; conditions: HCD+MAR group vs control and HCD-only
# Protocol: Control animals (n=5) received normal chow and water ad libitum. All animals in the experimental groups were fed a fat-free, high carbohydrate liquid diet (HCD) ad libitum placed in one bottle per cage as previously described (3, 62). No additional sources of nutrition or hydration were provided. The HCD liquid solution contained 20% dextrose, a commercial mixture of 2% essential and nonessential amino acids (TrophAmine, B. Braun Medical, Irvine, Calif.), 2 ml trace elements (Trace Elements Injection 4, USP—Pediatric, American Regent Shirley, N.Y.), and 5 ml multivitamins (M.V.I. Pediatric™, Mayne Pharma, Paramus, N.J.). Each liter of HCD contained 30 meq sodium, 20 meq potassium chloride, 15 meq calcium, 10 meq magnesium, and 10 mM phosphate. The bottles were replaced daily with fresh HCD solution. HCD animals (n=5) received HCD only and no additional treatment for 19 days. The HCD+MAR animals (n=15) additionally received 100 mg/kg of Marimastat™ in 0.45% methylcellulose (Sigma-Aldrich Corporation, St. Louis, Mo.) vehicle twice daily via orogastric gavage. The animals were individually weighed every third day and at sacrifice. Immunoprecipitation was performed according to the Protein-G Immunoprecipitation Kit (Sigma-Aldrich Corporation, St. Louis, Mo.) protocol. […] The sample was then centrifuged and the supernatant was, analyzed by SDS-PAGE as detailed above.
compound,measurement,setting,value
CNC(=O)[C@@H](NC(=O)[C@H](CC(C)C)[C@H](O)C(=O)NO)C(C)(C)C [Marimastat],serum IL-6 level,IL-6,significantly higher
same,SREBP-1c protein level,SREBP-1c,unchanged
same,phosphorylation of PPAR-α,PPAR-α,marked increase
